From US4537777A, “A52688 Antibiotics and process for their production” (priority 1983, dated 1985)
Read-outs that look alike come from different tables or passages of the source.

Key:
Staphylococcus aureus = test: standard disc-plate assay; format: cell-based; conditions: read-out: Zone Diameters
Bacillus subtilis = test: standard disc-plate assay; format: cell-based; conditions: read-out: Zone Diameters
Micrococcus luteus = test: standard disc-plate assay; format: cell-based; conditions: read-out: Zone Diameters
Mycobacterium avium = test: standard disc-plate assay; format: cell-based; conditions: read-out: Zone Diameters
[1] = tested on: Saccharomyces pastorianus; test: standard disc-plate assay; format: cell-based; conditions: read-out: Zone Diameters
Neurospora crassa = test: standard disc-plate assay; format: cell-based; conditions: read-out: Zone Diameters
Candida albicans = test: standard disc-plate assay; format: cell-based; conditions: read-out: Zone Diameters
[2] = tested on: Trichophyton mentagroprophytes; test: standard disc-plate assay; format: cell-based; conditions: read-out: Zone Diameters
Proteus vulgaris = test: standard disc-plate assay; format: cell-based; conditions: read-out: Zone Diameters
Salmonella gallinarium = test: standard disc-plate assay; format: cell-based; conditions: read-out: Zone Diameters
Escherichia coli = test: standard disc-plate assay; format: cell-based
Experimental: In Table IX the standard discplate-assay activity of the A52688 factors is summarized. Activity is measured as the diameter (in mm) of the observed zone of inhibition; the diameter of the disc used in each case was 6.35 mm.

Pseudomonas aeruginosa = test: standard disc-plate assay; format: cell-based; conditions: read-out: Zone Diameters
Serratia marcescens = test: standard disc-plate assay; format: cell-based; conditions: read-out: Zone Diameters
Pseudomonas solanacearum = test: microbe, parasite or virus in culture; format: cell-based; conditions: Ralstonia solanacearum; conc 0.1 mg/ml; read-out: Zone Diameters
[3] = tested on: Bacillus stereothermophilus; test: standard disc-plate assay; format: cell-based; conditions: read-out: Zone Diameters
Adenocarcinoma 755 = test: murine-transplanted tumor adenocarcinoma 755 in mice; format: in vivo; conditions: for Percent Tumor Inhibition / Toxic Deaths: daily for 10 days
Experimental: (§1) A52688 factors A, C, D, E, F, G, H, J and K and the specified acyl esters of factors A, C, D, E, G, H, J and K are especially useful as oncolytic agents.
Table X summarizes the results of experiments in which mice bearing the murine-transplanted tumor adenocarcinoma 755 were treated with compounds of this invention. In each test the compound was administered by the intraperitoneal route at specified dose levels. The compound was administered over a ten-day period, either on a daily basis or on days one, five and nine, as indicated.

acute toxicity in mice = conditions: mouse, in vivo, formulated in aqueous PVP
Text: ^a Compounds formulated in aqueous PVP
^b Route test compound administered

Lewis lung tumor = test: tumor growth test in mice; format: in vivo; conditions: tests in mice
Text: as §1

lymphosarcoma 6L3 HED = test: tumor growth test in mice; format: in vivo; conditions: tests in mice
Text: as §1

ovarian M-5 tumor = test: tumor growth test in mice; format: in vivo; conditions: tests in mice
Text: as §1

[4] = tested on: plasma cell myeloma X-5563; test: tumor growth test in mice; format: in vivo; conditions: tests in mice
Text: as §1

solid leukemia P1534J = test: tumor growth test in mice; format: in vivo; conditions: tests in mice
Text: as §1

moisture absorption = format: physicochemical
[5] = read-out: Zone Diameters, in minimal medium, conc 0.1 mg/ml, disc 6.35 mm

Structure (SMILES) | zone of inhibition at 100 µg/mL (Staphylococcus aureus) | zone of inhibition at 100 µg/mL (Bacillus subtilis) | zone of inhibition at 100 µg/mL (Micrococcus luteus) | zone of inhibition at 100 µg/mL (Mycobacterium avium) | zone of inhibition at 100 µg/mL [1] | zone of inhibition at 100 µg/mL (Neurospora crassa) | zone of inhibition at 100 µg/mL (Candida albicans) | zone of inhibition at 100 µg/mL [2] | zone of inhibition at 100 µg/mL (Proteus vulgaris) | zone of inhibition at 100 µg/mL (Salmonella gallinarium) | zone of inhibition at 100 µg/mL (Escherichia coli; [5]) | zone of inhibition at 100 µg/mL (Pseudomonas aeruginosa) | zone of inhibition at 100 µg/mL (Serratia marcescens) | zone of inhibition at 100 µg/mL (Pseudomonas solanacearum) | zone of inhibition at 100 µg/mL [3] | also measured
[C-]#[N+]C(=CC1=C[C@@H](O)[C@H](O)CC1)C(=CC1CCC(OC(=O)C=C(C)C)CC1)[N+]#[C-] (relative stereo) [Factor A] | 26 mm | 30 mm | 36 mm | 14 mm | 20 mm | 39 mm | 33 mm | 45 mm | 24 mm | 21 mm | 20 mm | 23 mm | 20 mm | 26 mm | 35 mm | zone of inhibition at 100 µg/mL (Escherichia coli; read-out: Zone Diameters, conc 0.1 mg/ml, disc 6.35 mm): 24 mm; Percent Tumor Inhibition (Adenocarcinoma 755; 0.25 mg/kg i.p.): 3%; Toxic Deaths (Adenocarcinoma 755; 0.25 mg/kg i.p., of 10 mice tested (9 for factor E)): 0; Percent Tumor Inhibition (Adenocarcinoma 755; 0.30 mg/kg i.p.): 55%; Toxic Deaths (Adenocarcinoma 755; 0.30 mg/kg i.p., of 10 mice tested): 1; Percent Tumor Inhibition (Adenocarcinoma 755; 0.35 mg/kg i.p.): 69%; Toxic Deaths (Adenocarcinoma 755; 0.35 mg/kg i.p., of 10 mice tested): 1; Percent Tumor Inhibition (Adenocarcinoma 755; 0.40 mg/kg i.p.): 91%; Toxic Deaths (Adenocarcinoma 755; 0.40 mg/kg i.p., of 9 mice tested): 6; growth of tumor (Adenocarcinoma 755; tests in mice): inhibited the growth; LD50 (acute toxicity in mice; ip, intraperitoneal, read-out: Intraperitoneal LD50): 3.12 mg/kg; LD50 (acute toxicity in mice; oral, read-out: Oral LD50): 8.84 mg/kg; growth of tumor (Lewis lung tumor): inhibited the growth; growth of tumor (lymphosarcoma 6L3 HED): inhibited the growth; growth of tumor (ovarian M-5 tumor): inhibited the growth; growth of tumor [4]: inhibited the growth; growth of tumor (solid leukemia P1534J): inhibited the growth
[C-]#[N+]C(=CC1CCC(OC(=O)CC(C)C)CC1)C(=CC1(OC(C)=O)C=CC(O)CC1)[N+]#[C-] (stereo not drawn) [Factor K] | 25 mm | 18 mm | 29 mm | 11 mm | 20 mm | 37 mm | 20 mm | 32 mm | 19 mm | 17 mm | 11 mm | 11 mm | 11 mm | 19 mm | 25 mm | moisture absorption (moisture absorption): absorbs moisture readily
